Assay results reported in patent US6531512B1, “Method of treating cancer in patients having a deficiency in p53 tumor suppressor gene” (Health Research Inc., priority 1998, dated 2003).

Experiments:
[1] = tested on: spermidine/spermine N^1-acetyltransferase (SSAT); assay: Polyamine enzyme activity in treated melanoma cells: SSAT induction; type: cell-based, human; details: for Enzyme Activities, SSAT: Table 4
Protocol: (§1) MALME-3M human melanoma cells were cultured as described in Example 1 and treated with 10 μM DENSPM or 10 μM spermine (SPM) as described in Example 4. SK-MEL-28 cells were also cultured as described in Example 1 and treated with 10 μM DENSPM as describe in Example 4. Untreated cells were used as a control.
(§2) After treatment with DENSPM or spermine, biochemical parameters including polyamine enzymes activity, polyamine pools and analog accumulation were monitored as described by Kramer et al, J. Biol. Chem., 270:2124-32 (1995) and Kramer et al., Cancer Res., 57:5521-5527 (1997). Polyamine enzyme activity was monitored for ornithine […] (ODC); S-adenosylmethionine decarboxylase (SAMDC); and spermidine/spermine N^1-acetyltransferase (SSAT). Polyamine pools was monitored for putrescine (Put); spermidine (Spd); and spermine (Spm).
(§3) Enzyme activity and polyamine pools were measured as described in Example 5.

[2] = tested on: ornithine decarboxylate (ODC); assay: Polyamine enzyme activity in treated melanoma cells: ODC; type: cell-based, human; details: for Enzyme Activities, ODC: SK-MEL-28 cells, 24 hours, Table 4
Protocol: as §1, §2, §3

[3] = tested on: SK-MEL-28 human melanoma cells; assay: Polyamine pools and analog accumulation in SK-MEL-28 cells; type: cell-based; details: SK-MEL-28 cells, 24 hours; for Analog (intracellular accumulation) / Polyamine Pools, Put / Polyamine Pools, Spd / Polyamine Pools, Spm: Table 4
Protocol: as §1, §2, §3

[4] = tested on: SK-MEL-28 human melanoma cells; assay: Cell growth / apoptotic response of SK-MEL-28 cells (Coulter Counter, growth kinetics); type: cell-based; details: SK-MEL-28 cells; for % Control Growth: 24 hours, Table 4; for cell growth and/or apoptosis response: growth kinetic analysis
Protocol: (§4) MALME-3M human melanoma cells containing wt-p53 (American Tissue Type Culture Collection, Bethesda, Md.) and human SK-MEL-28 cells containing mt-p53 (American Tissue Type Culture Collection, Bethesda, Md.) were cultured as a monolayer in RPMI 1640 medium containing 10% Nu-Serum (Collaborative Research Products, Bedford, Mass.), 1 mM aminoguanidine, penicillin (50 units/ml) and streptomycin (50 μg/ml) as described by Kramer et al, J. Biol. Chem., 270:2124-32 (1995) and Kramer et al., Cancer Res., 57:5521-5527 (1997).
(§5) MALME-3M cells were cultured as described in Example 1. The cells were seeded by adding 1×10^5 cells to a T-25 vented cell culture flask. After 24 hours, the asynchronous cell cultures were treated with 10 μM N^1, N^11-diethylnorspermine (DENSPM) prepared by dissolving DENSPM in distilled water and sterilizing the solution by filtration through a 0.22 micron Millipore membrane. The cells were treated by continuous exposure to DENSPM for 6 days (i.e., the polyamine was added to the cell culture at T=0 and the culture was incubated for the desired amount of time). The number of viable MALME-3M cells were monitored electronically using a Model ZM Coulter Counter (Coulter Electronics, Hialeah, Fla.). Untreated MALME-3M cell cultures were used as controls.
(§6) MALME-3M human melanoma cells were cultured as described in Example 1 and treated continuously with 10 μM DENSPM or 10 μM spermine (SPM) for 48 hours. SK-MEL-28 cells were also cultured as described in Example 1 and treated with 10 μM DENSPM for 24 hours. Untreated cells were used as a control.
The effect of DENSPM and spermine on cell growth was monitored using a Coulter Counter (see Example 2). The effect on cell cycle was monitored by flow cytometry as described in Example 3. […]

[5] = tested on: MALME-3M human melanoma cells; assay: Cell growth of MALME-3M cells (Coulter Counter); type: cell-based; details: 10 μM
Protocol: as §4, §5, §6
(§7) The effect of DENSPM and spermine on cell growth was monitored using a Coulter Counter (see Example 2). The effect on cell cycle was monitored by flow cytometry as described in Example 3.

[6] = tested on: MALME-3M human melanoma cells; assay: Cell cycle distribution of MALME-3M cells by flow cytometry; type: cell-based; details: MALME-3M (wt-p53), asynchronous, 10 μM, 48 hours
Protocol: MALME-3M cells were cultured as described in Example 1 and treated with 10 μM DENSPM as described in Example 2. Cell cycle arrest was monitored using a FACScan flow cytometry unit (Becton Dickinson, San Jose, Calif.) according to the method of Krishan (1975) J. Cell Biol. 66:[…]. Untreated MALME-3M cell cultures were used as controls.
Cell cycle arrest of serum synchronized MALME-3M cells was also monitored using flow cytometry. MALME-3M cells were synchronized in G0/G1 by replacing cell culture media containing 10% NuSerum (see Example 1) with media lacking NuSerum and incubating the cultures for 120 hours. The synchronized cells were released by the addition of 10% NuSerum (control culture) or 10% NuSerum plus 10 μM DENSPM. The cells were then grown continuously in the presence of serum (control) or DENSPM for up to 96 hours. The untreated cells (control) re-established an asynchronous profile (i.e., progressed through the cell cycle) by 60 hours.
as §7

[7] = tested on: S-adenosylmethionine decarboxylase (SAMDC); assay: Polyamine enzyme activity in treated melanoma cells: SAMDC; type: cell-based, human; details: MALME-3M (wt-p53), 10 μM, Table 2 (24 hours treatment)
Protocol: as §1, §2

[8] = tested on: MALME-3M human melanoma cells; assay: Polyamine pools in MALME-3M cells; type: cell-based; details: MALME-3M (wt-p53), 10 μM, Table 2 (24 hours treatment)
Protocol: as §1, §2

[9] = MALME-3M (wt-p53), 10 μM, Table 2 (24 hours treatment)

| Analog (intracellular accumulation) [3] [pmol/10^6 cells] | SMILES | SSAT activity ([1]; SK-MEL-28 cells, 24 hours) | Enzyme Activities, SSAT ([1]; SK-MEL-28 cells, 24 hours) [pmol/min/mg protein] | Enzyme Activities, ODC [2] [pmol/hr/mg protein] | Polyamine Pools, Put [3] [pmol/10^6 cells] | Polyamine Pools, Spd [3] [pmol/10^6 cells] | Polyamine Pools, Spm [3] [pmol/10^6 cells] | % Control Growth [4] [%] | cell growth and/or apoptosis response [4] | further results |
| --- | --- | --- | --- | --- | --- | --- | --- | --- | --- | --- |
| 5830 | CCNCCCNCCCCNCCCNCC [DE-343, N^1,N^12-diethylspermine] | 9,470 pmol/min/mg | 9470 | 23 | 60 | 60 | 200 | 59 | apoptotic response similar to that by DENSPM with a 24 hour delay | SSAT activity relative to DE-444 (times higher) ([1]; SK-MEL-28 cells): 10 times; SSAT activity relative to DENSPM (fold less) ([1]; SK-MEL-28 cells): about 3 fold |
|  | NCCCNCCCCNCCCN [SPM, spermine, reference compound] |  |  |  |  |  |  |  |  | SSAT activity [1, 9]: 210 pmol/min/mg; % Control Growth ([5]; MALME-3M (wt-p53), 48 hours): 96%; % Growth Control ([5]; MALME-3M (wt-p53), Table 2 (24 hours treatment)): 97%; effect on growth or cell cycle compared to control cells ([5]; MALME-3M, 48 hours): no effect; % Total Cells at 48 hours, G1 [6]: 67%; % Total Cells at 48 hours, G2/M [6]: 10%; % Total Cells at 48 hours, S [6]: 23%; SAMDC activity [7]: 20 pmol/hr/mg protein; ODC activity [2, 9]: 175 pmol/hr/mg protein; Polyamine Pools, Put [8]: <5 pmol/10^6 cells; Polyamine Pools, Spd [8]: 470 pmol/10^6 cells; Polyamine Pools, Spm [8]: 2430 pmol/10^6 cells |
| 5610 | CCNCCCCNCCCCNCCCNCC [DE-443, 3,7,12,17-tetraazanonadecane] | 5,215 pmol/min/mg | 5215 | 32 | 20 | 70 | 500 | 77 | apoptotic response with a 48 hour delay |  |
| 5950 | CCNCCCCNCCCCNCCCCNCC [DE-444, N^1,N^14-diethylhomospermine] | 930 pmol/min/mg | 930 | 14 | 20 | 120 | 1015 | 97 | cytostatic response | decrease in spermine pools [3]: 65% |
